The text below walks through data of ChEMBL document CHEMBL1145856, “Synthesis and in vitro characterization of 1-(4-aminofurazan-3-yl)-5-dialkylaminomethyl-1H-[1,2,3]triazole-4-carboxylic acid derivatives. A new class of selective GSK-3 inhibitors” (J Med Chem, 2003).

The target in assay [1] is Cyclin-dependent kinase 2/cyclin A (Homo sapiens, UniProt P24941). Description: Inhibition of Cyclin-dependent kinase 2-cyclin A. The assay is classed as protein-complex assay.
In assay [2] the target is T1, Glycogen synthase kinase-3 beta (Homo sapiens, UniProt P49841). Type of assay: functional, cell-based, Cricetulus griseus, CHO-hIR.
Assay [3] has as its target T1, Glycogen synthase kinase-3 beta. Type of assay: functional, cell-based, Cricetulus griseus, CHO.
Description: Stimulation of glycogen synthase in CHO cells expressing human insulin receptor
Assay [4] has the same target.
Description: Inhibitory activity against human glycogen synthase kinase-3beta (GSK3-beta) at 100 uM ATP
For assay [5] the target is unchanged. Description: Inhibition of human Glycogen synthase kinase-3 beta (GSK3-beta) at 100 uM ATP.

The IC50 is the midpoint of a concentration-inhibition curve. What is called EC50 is the midpoint of the concentration-response curve. Lower therefore signals an effect from little substance.

T1 sequence (P49841 whole entry): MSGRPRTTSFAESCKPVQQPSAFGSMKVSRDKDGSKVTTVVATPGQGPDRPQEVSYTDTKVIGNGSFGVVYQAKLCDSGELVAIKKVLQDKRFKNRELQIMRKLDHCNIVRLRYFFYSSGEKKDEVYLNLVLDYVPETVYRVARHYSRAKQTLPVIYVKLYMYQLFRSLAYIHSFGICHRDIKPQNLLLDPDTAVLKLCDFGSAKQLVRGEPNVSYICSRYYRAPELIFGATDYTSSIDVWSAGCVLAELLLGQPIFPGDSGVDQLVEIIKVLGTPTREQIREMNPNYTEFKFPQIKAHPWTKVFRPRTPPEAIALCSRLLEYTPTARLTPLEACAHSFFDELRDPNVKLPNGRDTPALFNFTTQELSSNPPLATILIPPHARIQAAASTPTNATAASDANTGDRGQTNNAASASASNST

`Nc1nonc1-n1nnc(-c2nnc(-c3ccncc3)[nH]2)c1CN1CCCCC1`: the results for the IC50 in assay [1] and in assay [4] were greater than 250 µM and 0.28 µM, respectively. Also, the half-maximal effective concentration (EC50) in assay [2] is 11.1 µM; in assay [3], 1.85 µM.
In turn, `Nc1nonc1-n1nnc(C(=O)NCCc2ccncc2)c1CN1CCCC1` yielded an IC50 in assay [4] of 2.1 µM. That is a single-digit micromolar value.
Still for that read-out and setting: with `CCN(CC)Cc1c(C(=O)NCCc2ccncc2)nnn1-c1nonc1N` the figure was 11.7 µM.
Still for that read-out and setting: the result for `NNC(=O)c1nnn(-c2nonc2N)c1CN1CCCCC1` reads 9.6 µM; that for `CN(CCc1ccncc1)C(=O)c1nnn(-c2nonc2N)c1CN1CCCCC1`, greater than 250 µM; that for `Nc1nonc1-n1nnc(C(=O)N/N=C/c2ccncc2)c1CN1CCCC1`, 0.1 µM.
`Nc1nonc1-n1nnc(C(=O)NCCc2ccncc2)c1CN1CCCCC1`: the values for the IC50 in assay [1] and in assay [4] were 119 µM and 1.16 µM, respectively. In addition, the results for the EC50 in assay [2] and in assay [3] were 57.5 µM and 19.1 µM, respectively.
The matching figures for `Nc1nonc1-n1nnc(C(=O)N/N=C/c2ccncc2)c1CN1CCCCC1`: 96 µM, 0.1 µM, 4.54 µM and 2.85 µM.
As to `Nc1nonc1-n1nnc(-c2n[nH]c(-c3ccncc3)n2)c1CN1CCCC1`, 0.24 µM corresponded to half-maximal inhibition in assay [4] (IC50).
The same measure, in the same setting: the result for `CC(C)CNCc1c(C(=O)NCc2ccncc2)nnn1-c1nonc1N` reads greater than 250 µM.
In assay [5], `CCN(CC)Cc1c(C(=O)NN)nnn1-c1nonc1N` gave a half-maximal inhibitory concentration (IC50) of 17 µM.
Take `Nc1nonc1-n1nnc(C(=O)NCc2ccncc2)c1CN1CCCCC1`: in assay [4], the IC50 stood at 9.3 µM.
The same measure, in the same setting: with `CN(C)Cc1c(-c2n[nH]c(-c3ccncc3)n2)nnn1-c1nonc1N` the figure was 6.92 µM; with `CCN(CC)Cc1c(C(=O)N/N=C/c2ccncc2)nnn1-c1nonc1N`, 0.41 µM.
